Data as given in patent US20100267067A1, “Synthase Inhibitor Screening Method” (priority 2007, published 2010).

Assays:
Type in all cases: cell-based
[1] = system: Bacillus strain secreting a wildtype protease denoted '10R' (SOL000); test: Plate growth of Bacillus secreting wildtype 10R protease on LB agar with MGMM and CMA; conditions: for Growth on the plate, 10R WT (SOL000): LB agar with MGMM, 37° C. overnight
Description: (§1) We wanted to find a concentration of carboxymethoxylhydroxylamine (CMA) that allows only protease-secreting Bacillus colonies to grow in the presence of the small peptide met-gly-met-met (MGMM). CMA inhibits the methionine synthesis in Bacillus cells, which severely hampers their growth. However, in the presence of MGMM, protease-secreting Bacillus cells can grow on CMA containing media. Secreted proteases degrade the MGMM peptide thereby releasing free methionine residues, which are taken up by the protese-secreting Bacillus cells and used for protein synthesis.
(§2) 500 ml LB agar was melted and placed in an incubator until the agar reached 60° C. 5 ml met-gly-met-met (MGMM, Sigma M4786-250MG) (5 mg/ml) and 300 microliter 1% chloramphenicol (in 70% ethanol) was added to the agar.
(§3) 4×25 ml media was transferred with a 25 ml Stripette™ to clean 25 ml Nunc™ containers. Different amounts of CMA (Aldrich C13408-1 g) were added to the media as indicated in the scheme below. All 25 ml media was poured into 9 cm petri dishes and dried in a clean bench; except for the “6×CMA on the plate” where 25 ml media was poured on a 9 cm petridish and dried and 600 microliter CMA (0.56 mg/ml) was spread on the plate afterwards.
(§4) The two micro-organisms were streaked on the 6 different types of plates. All plates were incubated upside down at 37° C. overnight.

[2] = system: Bacillus strain secreting inactive 10R protease (S143A) (SOL218); test: Plate growth of Bacillus secreting inactive 10R protease on LB agar with MGMM and CMA; conditions: LB agar with MGMM, 37° C. overnight
Description: as §1, §2, §3, §4

[3] = system: Saccharomyces cerevisiae JG 169; test: Yeast growth on triglyceride (olive oil) plates containing cerulenin; conditions: 5 mg cerulenin per approx. 510 ml SC-ura agar with olive oil; pENI4158 (lipase) vs pENI3659 (control) transformants
Procedure: Plasmids pENI3659 (control) and pENi4158 (with lipase gene) were transformed into the yeast strain Saccharomyces cerevisiae JG 169 (MAT-alpha; ura 3-52; leu 2-3, 112; his 3-D200; pep 4-113; prc1::HIS3; prb1::LEU2). The transformed yeast was streaked onto plates containing cerulenine and olive oil.
To 450 ml SC-ura-basic agar was added 50 ml 20% glucose and 10 ml olive oil. An UltraTurax™ […] (IKA Labortechnik, Germany) was used to disperse the olive oil. 5 mg cerulenin dissolve in 1 ml ethanol was added and 500 microliter ampicillin (100 mg/ml)). This mix was poured into […] 9 cm petri dishes.
SC-ura-basic agar: 7.5 g Yeast Nitrogen Base without amino acids, 11.3 g Bernstein, 6.8 g NaOH, 5.6 g casamino acids, 0.1 g L-tryptophan, 20 g agar in total of 900 ml water.

[4] = 5xCMA in the plate, 11.2 mg/L CMA
[5] = 6xCMA in the plate, 13.4 mg/L CMA
[6] = 6xCMA on the plate (spread on dried plate), 13.4 mg/L CMA
[7] = 7xCMA in the plate, 15.7 mg/L CMA
[8] = 8xCMA in the plate, 17.9 mg/L CMA

Row | Compound | Growth on the plate, 10R WT (SOL000) [1, 4] | Growth on the plate, 10R WT (SOL000) [1, 5] | Growth on the plate, 10R WT (SOL000) [1, 6] | Growth on the plate, 10R WT (SOL000) [1, 7] | Growth on the plate, 10R WT (SOL000) [1, 8] | Growth of Bacillus transformant cells which secrete active 10R protease, versus those that do not ([1]; LB agar with 11.2 mg/L CMA as well as MGMM in the plate, summary of Table 3) | Growth on the plate, 10R inactive (SOL218) [2, 4] | Growth on the plate, 10R inactive (SOL218) [2, 5] | Growth on the plate, 10R inactive (SOL218) [2, 6] | Growth on the plate, 10R inactive (SOL218) [2, 7] | Growth on the plate, 10R inactive (SOL218) [2, 8] | Growth of transformed yeast on the triglyceride plates in the presence of cerulinine [3]
1 | O=C(O)CONO [CMA, carboxymethoxylhydroxylamine] | Yes | No | No | No | No | only those can grow | No | No | No | No | No | –
2 | C/C=C/C/C=C/CCC(=O)[C@H]1O[C@H]1C(N)=O [cerulinine, cerulenin] | – | – | – | – | – | – | – | – | – | – | – | Only yeast cells transformed with pENI4158, which express active lipase, were able to grow
